Article PMC8799717, “Pharmacological targeting PIKfyve and tubulin as an effective treatment strategy for double-hit lymphoma” (Cell Death Discovery, 2022)

What was measured:
Experiment in all cases: biochemical
Design in all cases: KINOMEscan active-site-directed competition binding panel, 468 kinases, percent of DMSO control at 1 uM
Details in all cases: KINOMEscan binding, percent of DMSO control; read-out: Ctrl%
ABL1-nonphosphorylated = biological target: T1, ABL1-nonphosphorylated (Homo sapiens, UniProt P00519)
T1 construct: nonphosphorylated

ABL2 = ABL2 (Homo sapiens, UniProt P42684)
ACVR1 = ACVR1 (Homo sapiens, UniProt Q04771)
BMPR2 = BMPR2 (Homo sapiens, UniProt Q13873)
CAMK1 = CAMK1 (Homo sapiens, UniProt Q14012)
CDC2L2 = biological target: T2, CDC2L2 (Homo sapiens, UniProt Q9UQ88)
T2 construct: gene CDK11A

DAPK1 = DAPK1 (Homo sapiens, UniProt P53355)
EPHB1 = EPHB1 (Homo sapiens, UniProt P54762)
FGFR4 = FGFR4 (Homo sapiens, UniProt P22455)
KIT(D816V) = KIT(D816V) (Homo sapiens, UniProt P10721, D816V)
KIT(L576P) = KIT(L576P) (Homo sapiens, UniProt P10721, L576P)
LRRK2 = LRRK2 (Homo sapiens, UniProt Q5S007)
MAP4K4 = MAP4K4 (Homo sapiens, UniProt O95819)
MAPKAPK5 = MAPKAPK5 (Homo sapiens, UniProt Q8IW41)
MEK4 = biological target: T3, MEK4 (Homo sapiens, UniProt P45985)
T3 construct: gene MAP2K4

MYO3A = MYO3A (Homo sapiens, UniProt Q8NEV4)
PAK6 = PAK6 (Homo sapiens, UniProt Q9NQU5)
PIK3C2G = PIK3C2G (Homo sapiens, UniProt O75747)
PRKD1 = PRKD1 (Homo sapiens, UniProt Q15139)
PRKX = PRKX (Homo sapiens, UniProt P51817)
PYK2 = biological target: T4, PYK2 (Homo sapiens, UniProt Q14289)
T4 construct: gene PTK2B

QSK = biological target: T5, QSK (Homo sapiens, UniProt Q9Y2K2)
T5 construct: gene SIK3

TSSK3 = TSSK3 (Homo sapiens, UniProt Q96PN8)
WNK1 = WNK1 (Homo sapiens, UniProt Q9H4A3)

LRRK2, sequence (Q5S007 whole entry): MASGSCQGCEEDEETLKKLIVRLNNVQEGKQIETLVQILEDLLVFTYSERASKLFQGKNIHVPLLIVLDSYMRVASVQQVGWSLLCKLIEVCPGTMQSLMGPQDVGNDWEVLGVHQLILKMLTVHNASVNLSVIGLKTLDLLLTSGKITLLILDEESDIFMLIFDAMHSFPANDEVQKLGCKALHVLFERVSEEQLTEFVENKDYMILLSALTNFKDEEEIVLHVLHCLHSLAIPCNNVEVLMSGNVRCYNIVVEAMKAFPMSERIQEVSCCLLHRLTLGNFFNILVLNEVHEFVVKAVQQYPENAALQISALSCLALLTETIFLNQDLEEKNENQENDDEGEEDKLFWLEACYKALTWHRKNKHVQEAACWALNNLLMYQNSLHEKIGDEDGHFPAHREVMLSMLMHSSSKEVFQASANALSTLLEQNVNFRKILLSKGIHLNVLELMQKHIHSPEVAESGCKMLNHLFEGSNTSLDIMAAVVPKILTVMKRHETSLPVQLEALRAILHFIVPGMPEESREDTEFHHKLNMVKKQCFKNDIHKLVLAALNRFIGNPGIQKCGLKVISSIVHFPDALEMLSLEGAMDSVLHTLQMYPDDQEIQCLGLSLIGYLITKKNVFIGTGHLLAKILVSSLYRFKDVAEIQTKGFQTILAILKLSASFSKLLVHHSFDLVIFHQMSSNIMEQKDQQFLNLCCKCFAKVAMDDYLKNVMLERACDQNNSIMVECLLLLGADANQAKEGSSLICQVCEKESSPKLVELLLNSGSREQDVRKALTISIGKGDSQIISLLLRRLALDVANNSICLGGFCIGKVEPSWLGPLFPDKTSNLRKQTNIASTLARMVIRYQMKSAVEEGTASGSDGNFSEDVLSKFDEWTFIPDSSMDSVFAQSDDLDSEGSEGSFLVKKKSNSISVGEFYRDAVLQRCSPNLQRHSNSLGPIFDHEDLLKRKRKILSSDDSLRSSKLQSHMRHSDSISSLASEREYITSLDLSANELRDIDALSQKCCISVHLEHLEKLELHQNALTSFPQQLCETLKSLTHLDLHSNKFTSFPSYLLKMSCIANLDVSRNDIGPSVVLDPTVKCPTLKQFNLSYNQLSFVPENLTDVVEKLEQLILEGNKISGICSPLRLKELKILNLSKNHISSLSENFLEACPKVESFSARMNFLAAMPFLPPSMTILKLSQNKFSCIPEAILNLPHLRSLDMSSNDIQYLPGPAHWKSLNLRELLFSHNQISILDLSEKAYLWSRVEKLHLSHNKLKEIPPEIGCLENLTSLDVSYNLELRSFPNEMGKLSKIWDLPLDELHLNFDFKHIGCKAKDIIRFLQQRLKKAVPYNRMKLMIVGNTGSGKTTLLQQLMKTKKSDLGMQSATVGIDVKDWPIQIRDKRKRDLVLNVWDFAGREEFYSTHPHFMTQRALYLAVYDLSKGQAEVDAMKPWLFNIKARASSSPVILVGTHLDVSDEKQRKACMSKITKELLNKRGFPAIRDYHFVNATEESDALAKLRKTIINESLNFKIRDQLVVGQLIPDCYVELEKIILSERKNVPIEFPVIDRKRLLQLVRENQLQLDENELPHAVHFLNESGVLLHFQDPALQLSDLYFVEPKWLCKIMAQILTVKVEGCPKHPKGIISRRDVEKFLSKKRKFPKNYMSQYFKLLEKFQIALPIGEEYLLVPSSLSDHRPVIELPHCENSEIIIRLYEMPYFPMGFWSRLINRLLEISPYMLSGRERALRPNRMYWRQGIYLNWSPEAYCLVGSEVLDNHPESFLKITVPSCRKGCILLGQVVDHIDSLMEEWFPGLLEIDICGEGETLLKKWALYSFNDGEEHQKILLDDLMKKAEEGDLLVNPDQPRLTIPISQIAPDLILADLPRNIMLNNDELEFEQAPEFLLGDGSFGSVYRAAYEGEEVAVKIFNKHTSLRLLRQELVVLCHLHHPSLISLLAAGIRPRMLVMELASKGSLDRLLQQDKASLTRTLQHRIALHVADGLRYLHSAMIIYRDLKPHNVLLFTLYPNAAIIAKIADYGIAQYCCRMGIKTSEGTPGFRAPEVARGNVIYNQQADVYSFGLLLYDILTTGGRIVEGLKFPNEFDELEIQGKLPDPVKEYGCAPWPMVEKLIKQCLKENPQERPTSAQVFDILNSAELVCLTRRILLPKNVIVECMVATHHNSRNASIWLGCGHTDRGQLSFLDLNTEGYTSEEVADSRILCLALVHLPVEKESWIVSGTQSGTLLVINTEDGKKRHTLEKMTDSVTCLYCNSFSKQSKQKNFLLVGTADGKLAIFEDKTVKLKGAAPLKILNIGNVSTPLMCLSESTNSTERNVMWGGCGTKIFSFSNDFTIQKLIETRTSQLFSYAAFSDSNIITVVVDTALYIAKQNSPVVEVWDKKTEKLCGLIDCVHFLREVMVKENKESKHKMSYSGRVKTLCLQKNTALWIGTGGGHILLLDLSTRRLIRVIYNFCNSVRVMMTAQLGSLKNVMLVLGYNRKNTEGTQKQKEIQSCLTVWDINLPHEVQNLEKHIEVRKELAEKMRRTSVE
PRKD1, sequence (Q15139 whole entry): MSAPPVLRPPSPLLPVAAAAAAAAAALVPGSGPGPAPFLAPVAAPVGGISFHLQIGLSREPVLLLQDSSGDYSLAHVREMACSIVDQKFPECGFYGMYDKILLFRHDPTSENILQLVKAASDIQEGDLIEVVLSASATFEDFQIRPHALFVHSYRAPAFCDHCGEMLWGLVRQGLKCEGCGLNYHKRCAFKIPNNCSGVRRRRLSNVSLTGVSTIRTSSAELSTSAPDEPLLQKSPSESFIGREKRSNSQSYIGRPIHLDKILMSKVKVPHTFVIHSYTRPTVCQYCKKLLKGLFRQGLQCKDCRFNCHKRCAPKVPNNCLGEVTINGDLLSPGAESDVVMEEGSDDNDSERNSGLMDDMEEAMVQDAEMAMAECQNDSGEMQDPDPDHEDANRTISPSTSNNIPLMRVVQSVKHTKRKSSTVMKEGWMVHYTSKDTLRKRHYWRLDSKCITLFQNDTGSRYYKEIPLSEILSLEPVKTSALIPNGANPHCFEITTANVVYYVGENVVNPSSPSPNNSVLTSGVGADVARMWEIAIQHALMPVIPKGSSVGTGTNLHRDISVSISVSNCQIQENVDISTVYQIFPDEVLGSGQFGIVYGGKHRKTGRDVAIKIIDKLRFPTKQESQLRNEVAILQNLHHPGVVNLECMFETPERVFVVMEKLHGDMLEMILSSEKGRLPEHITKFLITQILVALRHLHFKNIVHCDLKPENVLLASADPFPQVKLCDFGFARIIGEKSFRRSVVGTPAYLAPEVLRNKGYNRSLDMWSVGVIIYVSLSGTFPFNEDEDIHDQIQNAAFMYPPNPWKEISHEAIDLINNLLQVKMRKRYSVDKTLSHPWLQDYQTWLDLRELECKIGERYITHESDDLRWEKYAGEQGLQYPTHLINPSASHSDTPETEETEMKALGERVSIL
PAK6, sequence (Q9NQU5 whole entry): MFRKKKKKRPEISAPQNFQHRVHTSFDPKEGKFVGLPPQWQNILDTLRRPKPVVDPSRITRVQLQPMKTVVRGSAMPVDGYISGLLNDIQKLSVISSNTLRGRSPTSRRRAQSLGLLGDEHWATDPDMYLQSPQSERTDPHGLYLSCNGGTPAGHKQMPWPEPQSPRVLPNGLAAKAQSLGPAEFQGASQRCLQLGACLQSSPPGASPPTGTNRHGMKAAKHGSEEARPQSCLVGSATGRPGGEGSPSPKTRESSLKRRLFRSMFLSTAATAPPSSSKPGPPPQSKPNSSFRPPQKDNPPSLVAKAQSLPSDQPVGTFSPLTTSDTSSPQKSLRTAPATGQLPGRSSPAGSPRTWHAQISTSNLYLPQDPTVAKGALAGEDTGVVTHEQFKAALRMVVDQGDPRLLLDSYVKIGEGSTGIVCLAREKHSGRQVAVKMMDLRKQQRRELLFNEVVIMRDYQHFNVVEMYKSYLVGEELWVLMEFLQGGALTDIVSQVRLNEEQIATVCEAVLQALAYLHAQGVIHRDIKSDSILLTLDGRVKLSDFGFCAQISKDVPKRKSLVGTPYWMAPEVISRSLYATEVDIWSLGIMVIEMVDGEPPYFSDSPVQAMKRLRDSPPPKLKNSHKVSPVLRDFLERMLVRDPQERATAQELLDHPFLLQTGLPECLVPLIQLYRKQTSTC
CAMK1, sequence (Q14012 whole entry): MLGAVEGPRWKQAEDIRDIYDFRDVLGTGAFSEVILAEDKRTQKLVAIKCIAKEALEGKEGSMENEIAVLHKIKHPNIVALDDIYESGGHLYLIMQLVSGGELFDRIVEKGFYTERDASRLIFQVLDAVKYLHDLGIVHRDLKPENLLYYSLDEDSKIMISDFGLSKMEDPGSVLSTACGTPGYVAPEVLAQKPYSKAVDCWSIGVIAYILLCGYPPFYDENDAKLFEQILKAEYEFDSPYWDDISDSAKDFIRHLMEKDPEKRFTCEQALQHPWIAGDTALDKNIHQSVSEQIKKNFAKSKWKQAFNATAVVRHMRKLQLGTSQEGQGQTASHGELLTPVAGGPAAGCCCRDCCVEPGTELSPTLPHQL
MAPKAPK5, sequence (Q8IW41 whole entry): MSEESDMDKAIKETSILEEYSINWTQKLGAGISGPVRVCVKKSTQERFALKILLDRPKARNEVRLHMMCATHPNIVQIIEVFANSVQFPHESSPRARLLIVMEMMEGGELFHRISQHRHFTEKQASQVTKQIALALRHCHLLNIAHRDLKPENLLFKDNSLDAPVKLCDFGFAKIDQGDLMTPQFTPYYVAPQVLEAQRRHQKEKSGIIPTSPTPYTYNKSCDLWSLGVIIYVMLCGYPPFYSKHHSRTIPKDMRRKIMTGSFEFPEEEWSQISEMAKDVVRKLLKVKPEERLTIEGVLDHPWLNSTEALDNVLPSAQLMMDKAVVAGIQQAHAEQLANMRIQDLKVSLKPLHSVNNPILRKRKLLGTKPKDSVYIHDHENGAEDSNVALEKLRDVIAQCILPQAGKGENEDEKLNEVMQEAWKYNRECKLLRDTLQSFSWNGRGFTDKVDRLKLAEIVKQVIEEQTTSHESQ

## Cc1ccc(NC(=O)c2cccc(C(F)(F)F)c2)cc1Nc1cc(-c2cccnc2)nc2[nH]ccc12 [HZX-02-059]
ABL1-nonphosphorylated
  remaining binding at 1 µM: 14%
ABL2
  remaining binding at 1 µM: 26%
ACVR1
  remaining binding at 1 µM: 77%
BMPR2
  remaining binding at 1 µM: 100%
CAMK1
  remaining binding at 1 µM: 100%
CDC2L2
  remaining binding at 1 µM: 80%
DAPK1
  remaining binding at 1 µM: 93%
EPHB1
  remaining binding at 1 µM: 39%
FGFR4
  remaining binding at 1 µM: 91%
KIT(D816V)
  remaining binding at 1 µM: 93%
KIT(L576P)
  remaining binding at 1 µM: 0.3%
LRRK2
  remaining binding at 1 µM: 100%
MAP4K4
  remaining binding at 1 µM: 89%
MAPKAPK5
  remaining binding at 1 µM: 100%
MEK4
  remaining binding at 1 µM: 78%
MYO3A
  remaining binding at 1 µM: 91%
PAK6
  remaining binding at 1 µM: 100%
PIK3C2G
  remaining binding at 1 µM: 86%
PRKD1
  remaining binding at 1 µM: 96%
PRKX
  remaining binding at 1 µM: 100%
PYK2
  remaining binding at 1 µM: 100%
QSK
  remaining binding at 1 µM: 66%
TSSK3
  remaining binding at 1 µM: 100%
WNK1
  remaining binding at 1 µM: 98%
